Earlier results in patent US20030082109A1, “Dextrorotary nicotine for smoking cessation” (priority 2001, published 2003).
Where two headings read alike, the source gives them in different places.

Columns and labels:
[1] = given amount of d-isomer vs like amount of natural l-isomer, in a person
living organisms = conditions: compared with l-isomer nicotine, found and reported
[2] = use as alternative alkaloid in smoking substitute; found and reported

CN1CCCC1c1cccnc1 (stereo not drawn) [d-isomer of nicotine, 1 methyl-2-(3-Pyridyl) pyrrolidine]
sensations and satisfaction relative to a like amount of l-isomer nicotine [1]: same sensations and satisfaction
toxicity relative to the natural tobacco-derived l-isomer of nicotine (living organisms): one half as toxic
toxicity relative to the natural tobacco-derived l-isomer of nicotine (living organisms; listed as dextrorotary isomer of nicotine): half as toxic

CN1[C@@H](CC(=O)c2ccccc2)CCC[C@H]1C[C@H](O)c1ccccc1 [lobeline]
adverse side effects [2]: adverse side effects, which are worse than tobacco withdrawal symptoms
